Like-named read-outs stand apart in the source and are kept apart here. Ends that are not written are not given here. Peptide text beside a SMILES is read from it. * marks the point of attachment. RhodamineB = CCN(CC)c1ccc2c(-c3ccccc3C(=O)*)c3ccc(=[N+](CC)CC)cc-3oc2c1; X1 = CC[N+]1=C(C=CC=C2N(CCCCCC(=O)*)c3ccccc3C2(C)C)C(C)(C)c2ccccc21; 5FAM = O=C1OC2(c3ccc(O)cc3Oc3cc(O)ccc32)c2ccc(C(=O)*)cc21
Legend:
[1] = test system: HBEC-5i cells (in vitro BBB model); experiment: In vitro BBB translocation across HBEC-5i transwell monolayer; assay type: in vitro ADME, human; settings: HBEC-5i monolayer on PET transwell 1.0 μm pores, apical to basolateral, 10 μM, 24 h, DMEM:F12 without phenol red, mean ± SD, triplicates of three independent experiments
Text: HBEC-5i cells were allowed to grow until confluence in a gelatin-coated T-flask. Then, cells were carefully harvested with trypsin-EDTA (Gibco/Thermo Fisher, United States) and seeded 8,000 cells/well to 0.1% gelatin solution coated tissue culture inserts [transparent polyester (PET) membrane with 1.0 μm pores] for 24-well plates (BD Falcon, United States). During 8 days, the medium was changed every 2 days. After 8 days, cells were washed two times with 1× PBS and once with DMEM:F12 medium without phenol red (Gibco/Thermo Fisher, United States). Then, peptides diluted in DMEM:F12 medium without phenol red to a final concentration of 10 μM were added to the apical side of the in vitro BBB model (Figure 1). Experiments were performed on different days using independently grown cell cultures.
FIGURE 1 Scheme of an in vitro BBB transwell membrane system. Human brain endothelial cells (HBEC-5i) are cultured as monolayer on the apical side of a polyester (PET) transwell insert (1.0 μm pore size). Then, 10 μM of peptides are added to the apical side, and the translocation measured as the amount detected on the basolateral side.
The translocation of peptides labeled with different fluorophores was determined by fluorescence emission. After 24 h incubation, samples from the apical and basolateral side were collected and analyzed. Fluorescence was measured using the infinite F200 TECAN plate reader. The percentage (%) of translocation was calculated using the following equation:
(3) Translocation(%)=(Fi-Fcells/Fpeptide-FMedium)×100
Fi is the fluorescence intensity recovered, Fcells is the fluorescence intensity recovered from cells without peptide incubation, Fpeptide is the fluorescence intensity of total peptide initially added to the transwell apical side, and FMedium is the fluorescence intensity of the medium.
The translocation of unlabeled peptides was determined by the calculation of the respective area under the curve (AUC) in the reversed phase HPLC chromatograms. After 24 h incubation, samples from the apical and basolateral side were collected and analyzed by HPLC on a PerkinElmer Series 200 pump coupled to a PerkinElmer Series 200 UV/Vis Detector on a Luca C18 column (4.6 mm × 50 mm, 3 μm, Phenomenex, United States), eluting with linear gradients of HCOOH/MeCN (0.1%, v/v) into HCOOH/H2O (0.1%, v/v) over 15 min at 1 mL/min. UV detection was λ = 220 nm. The percentage (%) of translocation was calculated using the following equation:
(4) Translocation(%)=(AUCi/AUCpeptide)×100
AUCi is the AUC of peptide recovered and AUCpeptide is the AUC of total peptide initially added to the transwell apical side.

[2] = CellTiter-Blue cell viability assay, HBEC-5i; assay type: cell-based, human; settings: human, HBEC-5i cells, Table 1, peptide 0.01-100 μM, mean ± SD, triplicates of three independent experiments, read-out: Cytotoxicity HBEC-5i cells IC50
Method: (§1) Peptides cytotoxicity against both HBEC-5i and MDA-MB-231 cells was determined using CellTiter-Blue® Cell Viability Assay, according to the manufacturer’s instructions. The assay is based on the ability of viable cells to reduce resazurin into resorufin, a highly fluorescent metabolite. […] Therefore, using this methodology is possible to distinguish between metabolic and non-metabolic cells and indirectly determine the cytotoxicity of peptides. Briefly, HBEC-5i and MDA-MB-231 cells were carefully detached from T-flasks, as described previously, and seeded 15,000/100 and 10,000/100 μL, respectively, in 96-well plates (Corning, United States) and incubated for 24 h. After medium removal, cells were washed two times with 1× PBS and 100 μL of previously diluted peptides (range between 0.01 and 100 μM) in either DMEM or DMEM:F12 medium were added to MDA-MB-231 or HBEC-5i cells, respectively. After 24 h incubation, cells were washed two times with 1× PBS, and 20 μL of CellTiter-Blue® Reagent (diluted in 100 μL of medium) was added to each well and incubated for 3 h in a humidified atmosphere of 5% CO2 at 37°C. The fluorescence intensity was measured at λ with an excitation of 560 nm and maximum emission at 590 nm using the infinite F200 TECAN plate reader. Medium and 1% Triton X-100-containing medium were used as positive controls (100% cell viability) and negative controls (0% cell viability), respectively. Cell viability (%) was determined using the following equation:
(§2) (7) CellViability=FP-FNC/FPC-FNC×100
(§3) Fp is the fluorescence intensity of peptide-treated cells, FNC is the fluorescence intensity for negative controls, and FPC is the fluorescence intensity for positive controls.
(§4) Experiments were performed on different days using independently grown cell cultures.
(§5) FIGURE 4 In vitro cytotoxicity unlabeled- and labeled-peptides. (A,B) Cytotoxicity against HBEC-5i cells. (C,D) Cytotoxicity against MDA-MB-231 cells. 1.5 × 10^4 and 1.0 × 10^4 cells of HBEC-5i and MDA-MB-231 cells, respectively, were incubated with various concentrations of peptides (range from 0.01 to 100 μM). The percentage of viability was determined using CellTiter® Blue reagent assay. […] Error bars, S.D.

[3] = test system: HBEC-5i cells; experiment: CellTiter-Blue cell viability assay, HBEC-5i; assay type: cell-based, human; settings: 24 h, peptide 0.01-100 μM, mean ± SD, triplicates of three independent experiments; for Cytotoxicity HBEC-5i cells IC10: Table 1, concentration causing 10% cell death; for Cytotoxicity HBEC-5i cells IC90: Table 1, concentration causing 90% cell death
Method: as §1, §2, §3, §4, §5

[4] = test system: human RBCs
Method: (§6) Fresh human blood was collected in EDTA tubes and centrifuged at 1,000 × g for 10 min at 4°C. The supernatant was discharged, and the pellet containing RBCs was washed three times with 1× PBS (137 mM NaCl, 2.7 mM KCl, 10 mM Na2HPO4, and 1.8 mM KH2PO4, pH 7.4) and resuspended in 1× PBS to obtain a 2.0% (v/v) suspension. Then, RBCs were added to centrifuge tubes containing two-fold serially diluted peptides to a final concentration ranging from 0.01 to 100 μM. The suspension was incubated for 24 h at 37°C with gentle stirring. After that, samples were centrifuged for 2 min at 1,000 × g. Supernatants were transferred to 96-well plates, and the hemoglobin released measured by absorbance at 570 nm in an Infinite F200 TECAN plate reader. 1× PBS with no peptides and Triton X-100 at 1 and 4% (v/v) were used as negative and positive controls, respectively. Hemolytic activity (%) was determined using the following equation:
(§7) (2) Hemolyticactivity(%)=AbsPT-AbsNC/AbsPC-AbsNC
(§8) where, AbsPT is the absorbance of treated samples, AbsNC is the absorbance from negative control, and AbsPC absorbance from positive control.
(§9) HC50 values were determined using the GraphPad Prism 7.0 software using a log(inhibitor) vs. normalized response. Experiments were performed on different days using independent blood donors.
(§10) (range from 0.01 to 100 μM). The percentage of hemolysis was determined by the absorbance of hemoglobin released into the supernatant. Melittin was included as a control peptide with hemolytic properties. The values were obtained from triplicates of three independent experiments. Error bars, S.D.

[5] = test system: human RBCs; experiment: Hemolytic activity on human red blood cells; settings: 37°C; for Hemolytic activity HC10 / Hemolytic activity HC50 / Hemolytic activity HC90: Table 1, human RBCs in 1x PBS pH 7.4, 24 h, peptide 0.01-100 μM, mean ± SD, triplicates of three independent experiments; for Hemolytic activity HC10: concentration causing 10% hemolysis, hemoglobin absorbance 570 nm; for Hemolytic activity HC50: concentration causing 50% hemolysis; for Hemolytic activity HC50 / Hemolytic activity HC90: absorbance 570 nm; for Hemolytic activity HC90: concentration causing 90% hemolysis
Method: as §6, §7, §8, §9, §10

[6] = labeled peptide, quantified by fluorescence emission
[7] = unlabeled peptide, quantified by HPLC (AUC, UV 220 nm)

Row | Molecule | Translocation (%) [1, 6] [%] | CC50 at 24 h [2] [µM] | Cytotoxicity HBEC-5i cells IC10 [3] [µM] | Hemolytic activity HC10 [4] [µM] | Hemolytic activity HC50 [4] [µM] | Hemolytic activity HC90 [4] [µM] | Hemolytic activity HC10 ([4]; pH 7.4) [µM] | Hemolytic activity HC50 ([4]; pH 7.4) [µM] | Hemolytic activity HC90 ([4]; pH 7.4) [µM] | Cytotoxicity HBEC-5i cells IC90 [3] [µM] | Translocation (%) [1, 7] [%] | Hemolytic activity HC10 [5] [µM] | Hemolytic activity HC50 [5] [µM] | Hemolytic activity HC90 [5] [µM] | Hemolysis of RBCs, in words ([5]; human RBCs, up to 100 μM, 24 h)
1 | CC[C@H](C)[C@H](NC(=O)CNC(=O)[C@H](C)NC(=O)CCCCCN1C(=CC=CC2=[N+](CC)c3ccccc3C2(C)C)C(C)(C)c2ccccc21)C(=O)N[C@@H](CC(C)C)C(=O)N[C@@H](CCCCN)C(=O)N[C@@H](CCCNC(=N)N)C(=O)N[C@@H](Cc1c[nH]c2ccccc12)C(N)=O [Q570-PepH3] (X1-AGILKRW-NH2) | 59.60 ± 2.64 | > 200 | >200 | > 200 | > 200 | > 200 | >200 | >200 | >200 |  |  |  |  |  | 
2 | CC[C@H](C)[C@H](NC(=O)CNC(=O)[C@H](C)NC(=O)c1ccccc1-c1c2ccc(=[N+](CC)CC)cc-2oc2cc(N(CC)CC)ccc12)C(=O)N[C@@H](CC(C)C)C(=O)N[C@@H](CCCCN)C(=O)N[C@@H](CCCNC(=N)N)C(=O)N[C@@H](Cc1c[nH]c2ccccc12)C(N)=O [RhB-PepH3] (RhodamineB-AGILKRW-NH2) | 51.57 ± 4.81 | > 200 | >200 | 9.208 ± 1.564 | 128.3 ± 6.596 | > 200 | 9.208 | 128.3 | >200 | >200 |  |  |  |  | 
3 | AGILKRW-NH2 [PepH3] |  | > 200 | >200 |  |  |  |  |  |  | >200 | 55.15 ± 3.16 | >200 | >200 | >200 | non-hemolytic
4 | CCN(CC)c1ccc2c(-c3ccccc3C(=O)N[C@@H](CO)C(=O)NCC(=O)N[C@H](C(=O)N[C@@H](CCC(N)=O)C(=O)N[C@@H](CCC(=O)O)C(=O)N[C@@H](CCC(=O)O)C(=O)N[C@@H](Cc3ccc(O)cc3)C(N)=O)[C@@H](C)O)c3ccc(=[N+](CC)CC)cc-3oc2c1 [RhB-PepNeg] (RhodamineB-SGTQEEY-NH2) | 51.57 ± 2.43 | > 200 | >200 |  |  |  |  |  |  | >200 |  | >200 | >200 | >200 | 
5 | CC[C@H](C)[C@H](NC(=O)CNC(=O)[C@H](C)NC(=O)c1ccc2c(c1)C(=O)OC21c2ccc(O)cc2Oc2cc(O)ccc21)C(=O)N[C@@H](CC(C)C)C(=O)N[C@@H](CCCCN)C(=O)N[C@@H](CCCNC(=N)N)C(=O)N[C@@H](Cc1c[nH]c2ccccc12)C(N)=O [CF-PepH3] (5FAM-AGILKRW-NH2) | 57.09 ± 2.43 | > 200 | >200 |  |  |  | >200 | >200 | >200 |  |  |  |  |  | 
6 | SGTQEEY-NH2 [PepNeg] |  | > 200 | >200 |  |  |  | >200 | >200 | >200 | >200 | 50.16 ± 3.13 |  |  |  | 
7 | CC[N+]1=C(C=CC=C2N(CCCCCC(=O)N[C@@H](CO)C(=O)NCC(=O)N[C@H](C(=O)N[C@@H](CCC(N)=O)C(=O)N[C@@H](CCC(=O)O)C(=O)N[C@@H](CCC(=O)O)C(=O)N[C@@H](Cc3ccc(O)cc3)C(N)=O)[C@@H](C)O)c3ccccc3C2(C)C)C(C)(C)c2ccccc21 [Q570-PepNeg] (X1-SGTQEEY-NH2) | 48.89 ± 3.05 | > 200 | >200 |  |  |  |  |  |  |  |  |  |  |  | 
